Measurements published in ChEMBL document CHEMBL3792292, “Development of a potent and selective FLT3 kinase inhibitor by systematic expansion of a non-selective fragment-screening hit” (Bioorg Med Chem Lett, 2016).

Columns and labels:
[1] = target: T1, Calcium/calmodulin-dependent protein kinase type IV (Homo sapiens) (UniProt Q16566); assay: Inhibition of full length human N-terminal GST-tagged CAMK4 (1 to 473 residues) expressed in baculovirus expression system using fluorescence labelled GS peptide as substrate at 50 times IC50 by electrophoretic mobility shift assay relative to control
T1 sequence (whole entry): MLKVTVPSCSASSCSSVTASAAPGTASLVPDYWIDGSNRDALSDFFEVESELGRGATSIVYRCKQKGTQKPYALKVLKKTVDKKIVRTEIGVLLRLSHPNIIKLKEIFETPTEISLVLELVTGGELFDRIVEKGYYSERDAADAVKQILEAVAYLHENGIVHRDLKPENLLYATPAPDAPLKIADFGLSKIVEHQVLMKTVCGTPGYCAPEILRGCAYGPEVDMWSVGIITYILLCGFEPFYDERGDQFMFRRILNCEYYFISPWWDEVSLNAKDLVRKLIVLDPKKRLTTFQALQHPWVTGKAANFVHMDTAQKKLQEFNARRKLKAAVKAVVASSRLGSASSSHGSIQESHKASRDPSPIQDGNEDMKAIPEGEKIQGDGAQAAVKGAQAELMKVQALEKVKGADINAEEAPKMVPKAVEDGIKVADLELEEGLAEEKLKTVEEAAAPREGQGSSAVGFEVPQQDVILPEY

[2] = target: Proto-oncogene tyrosine-protein kinase Src (Homo sapiens) (UniProt P12931); assay: Inhibition of full length human N-terminal GST-tagged SRC (1 to 536 residues) expressed in baculovirus expression system using fluorescence labelled srctide as substrate at 50 times IC50 by electrophoretic mobility shift assay relative to control
Chain of Proto-oncogene tyrosine-protein kinase Src (Homo sapiens) (P12931 2-536 limits assumed): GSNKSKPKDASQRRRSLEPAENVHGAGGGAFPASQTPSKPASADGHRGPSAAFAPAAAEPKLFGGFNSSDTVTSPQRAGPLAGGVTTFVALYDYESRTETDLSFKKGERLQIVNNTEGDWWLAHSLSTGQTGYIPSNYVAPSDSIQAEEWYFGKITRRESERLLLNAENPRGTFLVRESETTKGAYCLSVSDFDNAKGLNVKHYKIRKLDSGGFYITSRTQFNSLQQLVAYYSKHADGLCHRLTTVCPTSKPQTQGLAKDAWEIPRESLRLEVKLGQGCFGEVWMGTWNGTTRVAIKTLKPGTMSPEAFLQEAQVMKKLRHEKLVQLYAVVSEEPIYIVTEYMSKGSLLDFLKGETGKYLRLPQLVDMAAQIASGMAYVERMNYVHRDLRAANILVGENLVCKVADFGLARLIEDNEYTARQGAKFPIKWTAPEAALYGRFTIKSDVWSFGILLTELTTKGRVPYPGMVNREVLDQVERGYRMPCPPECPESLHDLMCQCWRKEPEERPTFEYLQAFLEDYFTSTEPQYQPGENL

[3] = target: T2, Tyrosine-protein kinase receptor TYRO3 (Homo sapiens) (UniProt Q06418); assay: Inhibition of human N-terminal GST-tagged TYRO3 cytoplasmic domain (453 to 890 residues) expressed in baculovirus expression system using fluorescence labelled CSKtide as substrate at 50 times IC50 by electrophoretic mobility shift assay relative to control
T2 sequence (whole entry): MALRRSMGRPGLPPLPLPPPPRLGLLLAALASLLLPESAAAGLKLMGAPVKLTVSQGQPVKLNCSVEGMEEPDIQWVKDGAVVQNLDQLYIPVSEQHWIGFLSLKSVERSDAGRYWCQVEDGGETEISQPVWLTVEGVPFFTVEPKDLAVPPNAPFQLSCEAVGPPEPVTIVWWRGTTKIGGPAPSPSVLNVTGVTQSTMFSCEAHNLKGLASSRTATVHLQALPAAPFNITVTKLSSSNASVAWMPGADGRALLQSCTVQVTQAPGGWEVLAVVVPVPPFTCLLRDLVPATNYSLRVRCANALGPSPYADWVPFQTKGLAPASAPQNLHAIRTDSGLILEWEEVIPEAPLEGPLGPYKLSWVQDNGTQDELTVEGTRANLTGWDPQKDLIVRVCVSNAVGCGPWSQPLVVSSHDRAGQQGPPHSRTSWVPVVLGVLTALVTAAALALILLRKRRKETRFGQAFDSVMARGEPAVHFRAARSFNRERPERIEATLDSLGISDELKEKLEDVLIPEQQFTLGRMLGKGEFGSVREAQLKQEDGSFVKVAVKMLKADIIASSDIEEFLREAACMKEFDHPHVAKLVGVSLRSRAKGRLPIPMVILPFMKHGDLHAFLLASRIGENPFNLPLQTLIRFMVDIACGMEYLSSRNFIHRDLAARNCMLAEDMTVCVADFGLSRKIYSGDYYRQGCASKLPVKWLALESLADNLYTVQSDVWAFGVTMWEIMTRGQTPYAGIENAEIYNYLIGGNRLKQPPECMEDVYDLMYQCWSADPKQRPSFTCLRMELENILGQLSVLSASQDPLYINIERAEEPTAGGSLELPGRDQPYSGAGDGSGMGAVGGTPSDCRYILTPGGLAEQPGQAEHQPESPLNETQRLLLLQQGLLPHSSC

[4] = target: T3, Ephrin type-B receptor 4 (Homo sapiens) (UniProt P54760); assay: Inhibition of human N-terminal GST-tagged EPHB4 cytoplasmic domain (577 to 987 residues) expressed in baculovirus expression system using fluorescence labelled Blk/Lyntide as substrate at 50 times IC50 by electrophoretic mobility shift assay relative to control
T3 sequence (whole entry): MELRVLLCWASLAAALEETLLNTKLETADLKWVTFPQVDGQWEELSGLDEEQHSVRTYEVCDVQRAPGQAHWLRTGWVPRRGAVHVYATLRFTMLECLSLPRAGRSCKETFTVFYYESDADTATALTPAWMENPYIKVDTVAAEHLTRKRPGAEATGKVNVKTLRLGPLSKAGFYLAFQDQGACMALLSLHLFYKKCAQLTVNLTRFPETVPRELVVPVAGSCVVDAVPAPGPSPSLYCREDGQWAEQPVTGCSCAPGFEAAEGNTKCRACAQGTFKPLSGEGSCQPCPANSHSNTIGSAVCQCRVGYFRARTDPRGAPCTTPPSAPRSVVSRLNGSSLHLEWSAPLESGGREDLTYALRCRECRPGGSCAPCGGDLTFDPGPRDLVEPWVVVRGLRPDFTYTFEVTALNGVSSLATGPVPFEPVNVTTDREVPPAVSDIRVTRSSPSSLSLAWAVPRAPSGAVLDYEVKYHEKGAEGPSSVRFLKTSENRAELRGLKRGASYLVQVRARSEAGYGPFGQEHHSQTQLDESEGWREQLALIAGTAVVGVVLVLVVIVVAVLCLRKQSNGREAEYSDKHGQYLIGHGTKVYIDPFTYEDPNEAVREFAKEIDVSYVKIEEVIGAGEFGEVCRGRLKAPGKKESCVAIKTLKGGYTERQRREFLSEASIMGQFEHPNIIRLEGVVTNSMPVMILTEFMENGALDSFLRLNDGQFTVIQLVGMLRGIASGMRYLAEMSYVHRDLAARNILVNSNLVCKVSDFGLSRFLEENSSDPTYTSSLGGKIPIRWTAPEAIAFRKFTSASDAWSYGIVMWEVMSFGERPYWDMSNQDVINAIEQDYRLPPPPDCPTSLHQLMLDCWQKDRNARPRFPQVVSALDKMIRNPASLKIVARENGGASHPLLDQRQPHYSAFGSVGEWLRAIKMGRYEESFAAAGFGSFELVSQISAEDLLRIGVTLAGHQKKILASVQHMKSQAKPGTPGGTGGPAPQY

[5] = target: Dual specificity tyrosine-phosphorylation-regulated kinase 1B (Homo sapiens) (UniProt Q9Y463); assay: Inhibition of full length human N-terminal GST-tagged DYRK1B (1 to 629 residues) expressed in baculovirus expression system using fluorescence labelled DYRKtide-F as substrate at 50 times IC50 by electrophoretic mobility shift assay relative to control
Chain of Dual specificity tyrosine-phosphorylation-regulated kinase 1B (Homo sapiens) (Q9Y463 whole entry, looked up, the tested form may be a part): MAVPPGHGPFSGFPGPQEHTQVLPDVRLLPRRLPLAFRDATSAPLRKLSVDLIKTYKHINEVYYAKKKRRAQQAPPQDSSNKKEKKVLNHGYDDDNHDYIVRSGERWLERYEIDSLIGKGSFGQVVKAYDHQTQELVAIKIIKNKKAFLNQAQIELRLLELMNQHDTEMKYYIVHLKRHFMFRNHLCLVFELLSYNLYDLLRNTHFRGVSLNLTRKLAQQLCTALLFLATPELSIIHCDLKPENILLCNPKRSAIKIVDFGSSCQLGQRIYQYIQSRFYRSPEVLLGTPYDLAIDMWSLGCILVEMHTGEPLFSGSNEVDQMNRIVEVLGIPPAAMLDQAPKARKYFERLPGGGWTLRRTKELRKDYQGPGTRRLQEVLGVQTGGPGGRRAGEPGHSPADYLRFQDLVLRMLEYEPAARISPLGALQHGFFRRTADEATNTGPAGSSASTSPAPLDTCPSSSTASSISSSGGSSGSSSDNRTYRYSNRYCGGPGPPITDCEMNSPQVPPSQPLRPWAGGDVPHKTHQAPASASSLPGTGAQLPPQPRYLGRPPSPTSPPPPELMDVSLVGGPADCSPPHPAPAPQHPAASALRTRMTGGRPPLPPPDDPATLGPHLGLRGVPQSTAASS

[6] = target: Serine/threonine-protein kinase PAK 2 (Homo sapiens) (UniProt Q13177); assay: Inhibition of full length human N-terminal GST-tagged PAK2 (1 to 524 residues) expressed in baculovirus expression system using fluorescence labelled DAPK1tide as substrate at 50 times IC50 by electrophoretic mobility shift assay relative to control
Chain of Serine/threonine-protein kinase PAK 2 (Homo sapiens) (Q13177 whole entry, the tested form may be a part): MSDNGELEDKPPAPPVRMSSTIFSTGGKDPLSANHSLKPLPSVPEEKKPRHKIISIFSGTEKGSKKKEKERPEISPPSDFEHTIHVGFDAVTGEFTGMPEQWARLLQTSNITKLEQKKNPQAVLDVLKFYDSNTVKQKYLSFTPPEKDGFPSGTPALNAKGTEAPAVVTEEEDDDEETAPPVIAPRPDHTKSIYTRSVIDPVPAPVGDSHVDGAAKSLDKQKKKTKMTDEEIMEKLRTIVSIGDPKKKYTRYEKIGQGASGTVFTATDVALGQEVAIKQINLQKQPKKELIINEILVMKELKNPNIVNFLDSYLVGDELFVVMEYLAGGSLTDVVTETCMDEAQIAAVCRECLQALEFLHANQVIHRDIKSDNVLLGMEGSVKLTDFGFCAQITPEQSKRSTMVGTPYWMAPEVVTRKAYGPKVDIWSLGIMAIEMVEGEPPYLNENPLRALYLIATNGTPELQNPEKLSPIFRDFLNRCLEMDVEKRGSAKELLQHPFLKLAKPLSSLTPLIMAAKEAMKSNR

| SMILES | inhibition [1] [%] | inhibition [2] [%] | inhibition [3] [%] | inhibition [4] [%] | inhibition [5] [%] | inhibition [6] [%] |
| --- | --- | --- | --- | --- | --- | --- |
| O=C(Nc1ccc(C(=O)N2CCN(c3ccccc3)CC2)cc1)c1n[nH]c2ccccc12 | 2.7 | 2.5 | 9.3 | -1.2 | 29.4 | -1.6 |
| O=C(Nc1ccccc1)c1n[nH]c2ccccc12 | 21.2 | 6.1 | 10.6 | 0.4 | 53.6 | 0.8 |
| O=C(Nc1ccc(CN2CCN(c3ccccc3)CC2)cc1)c1n[nH]c2ccccc12 | 0.8 | 0.6 | 3.6 | -0.4 | 12.7 | 0.6 |
